Data: US20220264876A1, “COMPOSITIONS AND METHODS FOR ENHANCING PLANT GROWTH” (BOYCE THOMPSON INSTITUTE FOR PLANT RESEARCH, INC., priority 2019, published 2022)

Experiments:
Format in all cases: in vivo
corn seeds = test: Corn seed pretreatment with ascr #18: germination/emergence and growth in soil
Procedure: FIGS. 8A-8B show the effect of ascr #18 on corn seed germination/emergence and growth. Corn seeds were pretreated 24 hours without (mock) or with different concentrations (10, 100 and 1000 nM) of ascr #18 before planting in soil. Seed germination/emergence from soil was measured after 4, 5, 6, 7, 8, 9, 10 and 11 days after planting (FIG. 8A). The height of the second node of the plants was measured 15 days after planting (FIG. 8B). Data are averages±s.d. (n≥12). *P≤0.05; two-tailed t-test. The effect of ascr #18 on corn seed germination/emergence and growth was also studied. Corn seeds were pretreated 24 hours without (mock) or with different concentrations (10, 100 and 1000 nM) of ascr #18 before planting in soil. Seed germination/emergence from soil was measured after 4, 5, 6, 7, 8, 9, 10 and 11 days after planting. […] The height of the second node of the plants was also measured 15 days after planting.

tomato seeds = test: Tomato seed pretreatment with ascr #18: germination/emergence and growth in soil
Procedure: Tomato seeds were pretreated 24 hours without (mock) or with different concentrations (1, 10, 100, 1000 and 10000 nM) of ascr #18 before planting on soil. The length of the plants was measured 12 days after planting. **P≤0.002; ****P≤0.00005; two-tailed t-test. FIGS. 4A-4F show the effect of ascr #18 on tomato seed germination/emergence and growth. Tomato seeds were pretreated 24 hours without (mock) or with different concentrations (10, 100, and 1000 nM) of ascr #18 before planting in soil. Seed germination/emergence from soil was measured after 4, 5, 6 and 7 days after planting (FIG. 4A). The length of plants was measured 12 and 14 days after planting (FIG. 4B). Pictures were taken 14 days after planting (FIG. 4C). **P≤0.002; ****P≤0.00005; two-tailed t-test. FIGS. 4D and 4E provide graphs of the fresh weight of above-ground (excluding root) part of the plants measured at day 21 after planting in soil for tomato seeds pretreated without (mock) or with different concentrations (0.1 and 10 μM) of ascr #18 for 24 hours (FIG. 4D) or 72 hours (FIG. 4E) before planting in soil. The length of the roots of the plants was also measured 21 days after planting (FIG. 4F). The effect of ascr #18 on was also determined on tomato plant growth. Tomato seeds were pretreated 24 hours without (mock) or with different concentrations (1, 10, 100, 1000 and 10000 nM) of ascr #18 before planting on soil. The length of the plants was measured 12 days after planting. […] Further studies on the effect of ascr #18 on tomato seed germination/emergence and growth. Tomato seeds were pretreated 24 hours without (mock) or with different concentrations (10, 100, and 1000 nM) of ascr #18 before planting in soil. Seed germination/emergence from soil was measured after 4, 5, 6 and 7 days after planting. […] The length of the plants was also measured 12 and 14 days after planting and pictures were taken 14 days after planting. […] In further experiments, tomato seeds were pretreated 24 or 72 hours without (mock) or with different concentrations (0.1 and 10 μM) of ascr #18 before planting in soil. More specifically, the tomato seeds were submerged in aqueous solutions of ascaroside for 24 hours or 72 hours directly before planting. Alternatively, seeds, (e.g., tomato seeds) can be coated with a solution of different concentrations of ascaroside containing polymeric binders commonly used for seed coating. Following treatment, the seeds can be dried and stored (e.g., for 2 weeks) before planting. The fresh weight of above-ground (excluding root) part of the plants was measured 21 days after planting. […] The length of the roots of the plants was also measured 21 days after planting.

rice seeds = test: Rice seed pretreatment with ascr #18: germination/emergence and growth in soil
Procedure: FIGS. 1A-1D show the effect of ascr #18 on rice seed germination/emergence and growth. Rice seeds were pretreated 24 hours without (mock) or with different concentrations (10, 100 and 1000 nM) of ascr #18 before planting in soil. Seed germination/emergence from soil was measured after 7, 8, 9, 10 and 11 days after planting (FIG. 1A). The length of the plants was measured 15 days after planting (FIG. 1B) and 18 days after planting (FIG. 1C). Pictures were taken 15 days after planting (FIG. 1D). Data are averages±s.d. (n≥12). ***P≤0.0005; ****P≤0.00005; two-tailed t-test.
FIGS. 2A-2C show the effect of ascr #18 on rice seed germination/emergence and growth. Rice seeds were pretreated 24 hours without (mock) or with different concentrations (10, 100 and 1000 nM) of ascr #18 before planting in soil. Seed germination/emergence from soil was measured after 6, 7, 8, 9 and 10 days after planting (FIG. 2A). The length of the plants was measured 10, 12, 14, 15 and 18 days after planting (FIG. 2B). The fresh biomass of the plants was measured 18 days after planting (FIG. 2C). Data are averages±s.d. (n≥14). *P≤0.05; **P≤0.005; ***P≤0.0005; ****P≤0.00005; two-tailed t-test.
The effect of ascr #18 on rice seed germination/emergence and growth was tested. Briefly, rice seeds were pretreated 24 hours without (mock) or with different concentrations (10, 100 and 1000 nM) of ascr #18 before planting in soil. Seed germination/emergence from soil was measured after 7, 8, 9, 10 and 11 days after planting. […] The length of plants was also measured 15 days and 18 days after planting and pictures were taken at 15 days after planting.
Further studies of the effect of ascr #18 on rice seed germination/emergence and growth were performed. Rice seeds were pretreated 24 hours without (mock) or with different concentrations (10, 100 and 1000 nM) of ascr #18 before planting in soil. Seed germination/emergence from soil was measured after 6, 7, 8, 9 and 10 days after planting. […] The length of plants was also measured at 10, 12, 14, 15 and 18 days after planting. […] The fresh biomass of plants was also measured 18 days after planting.

potato plants = test: Spray treatment of four-week old potato plants with ascr #18: growth and tuber yield
Procedure: FIGS. 6A-6B show the effects of ascr #18 on potato plants. Four-week old potato plants were pretreated without (mock) or with ascr #18 (10 nM). Potato tubers were harvested from mock and pre-treated plants. FIG. 6A provides images of tubers from one representative plant that was mock treated and one representative plant that was treated with ascr #18. FIG. 6B provides a graph of the biomass of the above-ground (excluding root) part of the potato plants. FIGS. 7A-7E show the effect of ascr #18 on potato plant growth and yield. Four-week old potato plants were sprayed once with buffer only (mock) or 10 nM ascr #18 before harvesting two weeks later. […] Potato root system (7C) and tubers (7D) harvest from treated and mock plants are presented. Each pile of tubers was from one plant. FIG. 7E presents the tuber biomass of the mock and treated plants at harvest. The effects of ascr #18 on potato were also studied. Four week old potato plants were pretreated (sprat treatment) without (mock) or with ascr #18 (10 nM). Potato tubers were harvested from mock and pre-treated plants. Each pile of tubers in FIG. 6A were from one plant. […] The above-ground (excluding root) part of the potato plants was also measured.

Arabidopsis seeds = test: Arabidopsis seed pretreatment with ascr #18: germination, growth and flowering
Procedure: Arabidopsis seeds were pretreated 24 hours without (mock) or with 1 μM ascr #18 before planting in soil. FIG. 5A provides a graph of the number of plants at different stages of germination counted 3 days after planting. Stages of germination; 0=no germination; 1=about to germinate; 2=germinated and two-leaf stage; 3=germinated and have expanded leaves (n=60). FIG. 5B provides graphs of the surface area of germinated plants measured by taking pictures and counting pixels using Fiji software and then normalizing by the total area for each plant (n=15 pots with each pot containing 4 plants). FIG. 5C provides a graph of the percent of plants flowering at day 25 after planting in soil. FIG. 5D provides a graph of the fresh weight of above-ground (excluding root) part of the plants measured at day 25 after planting in soil. *P=0.03; **P≤0.01; ***P≤0.001; ****P≤0.0001; two-tailed t-test. The effects of ascr #18 on Arabidopsis were also studied. Arabidopsis seeds were pretreated 24 hours without (mock) or with 1 μM ascr #18 for ascr #18 before planting in soil. The number of plants at different stages of germination were counted 3 days after planting. […] Additionally, the surface area of germinated plants was measured by taking pictures and counting pixels using Fiji software. The data was then normalized by the total area for each plant. […] The percentage of plants flowering at day 25 after planting in soil was also determined. […] The fresh weight of above-ground (excluding root) part of the plants was also measured 25 days after planting.

wheat seeds = test: Wheat seed pretreatment with ascr #18: germination/emergence and growth in soil; details: wheat seeds pretreated 24 hours with 10, 100, 1000 nM vs mock; 10 days after planting (FIG. 9B)
Procedure: FIGS. 9A-9B show the effect of ascr #18 on wheat seed germination/emergence and growth. Wheat seeds were pretreated 24 hours without (mock) or with different concentrations (10, 100 and 1000 nM) of ascr #18 before planting in soil. Seed germination/emergence from soil was measured after 2, 3, 4, 5, 6, 7, 8, 9 and 10 days after planting (FIG. 9A). The height of the second node of the plants was measured […] after planting (FIG. 9B). Data are averages±s.d. (n≥12). *P≤0.05; two-tailed t-test. The effect of ascr #18 on wheat seed germination/emergence and growth was also studied. Wheat seeds were pretreated 24 hours without (mock) or with different concentrations (10, 100 and 1000 nM) of ascr #18 before planting in soil. Seed germination/emergence from soil was measured after 2, 3, 4, 5, 6, 7, 8, 9 and 10 days after planting (FIG. 9A). The height of the second node of the plants was also measured 10 days after planting.

## CC1O[C@@H](O[C@@H](C)CCCCCCCCC(=O)O)C(O)C[C@H]1O (stereo in doubt) [ascr #18, (10R)-(3′R,5′R-dihydroxy-6′S-methyl-(2H)-tetrahydropyran-2-yloxy)-undecanoic Acid]
Corn seeds; corn seeds pretreated 24 hours with 10, 100, 1000 nM vs mock, 4-11 days after planting (FIG. 8A)
  Seed germination/emergence from soil: faster germination/emergence rate
Corn seeds; corn, 10, 100, 1000 nM vs mock, 15 days after planting (FIG. 8B)
  Height of the second node of the plants: taller
Tomato seeds; tomato seeds pretreated 24 or 72 hours with 0.1 and 10 μM vs mock, 21 days after planting (FIGS. 4D-4E), particularly with longer pretreatment
  Fresh weight of above-ground (excluding root) part of the plants: greater weight
Tomato seeds; tomato seeds pretreated 24 hours with 10, 100, 1000 nM vs mock, 4-7 days after planting (FIG. 4A)
  Seed germination/emergence from soil: faster germination/emergence rate
Tomato seeds; tomato, 0.1 and 10 μM vs mock, 21 days after planting (FIG. 4F)
  Length of the roots of the plants: longer roots
Tomato seeds; tomato, 10, 100, 1000 nM for 24 hours, 12 and 14 days after planting (FIGS. 4B-4C)
  Length of the plants: taller
Tomato seeds; tomato, seed treatment 100 nM or 1000 nM vs untreated or 10 nM, 12 days after planting (FIG. 3)
  Length of the plants: taller
Rice seeds; rice seeds pretreated 24 hours with 10, 100, 1000 nM vs mock, 7-11 days after planting (FIG. 1A)
  Seed germination/emergence from soil: faster germination/emergence rate
Rice seeds; rice, further study, 10, 100, 1000 nM for 24 hours vs mock, 6-10 days after planting (FIG. 2A)
  Seed germination/emergence from soil: faster germination/emergence rate
Rice seeds; rice, further study, 10, 100, 1000 nM, 10, 12, 14, 15 and 18 days after planting (FIG. 2B)
  Length of plants: faster growth
Rice seeds; rice, further study, 10, 100, 1000 nM, 18 days after planting (FIG. 2C)
  Fresh biomass of plants: greater biomass
Rice seeds; rice, seed treatment 100 nM or 1000 nM vs untreated or 10 nM, 15 and 18 days after planting (FIGS. 1B-1D)
  Length of plants: taller
Potato plants; four-week old potato plants sprayed once with 10 nM vs mock, harvest two weeks later (FIG. 6B, FIGS. 7A-7E)
  Biomass of the potato plants (above-ground part, tubers): greater biomass
Potato plants; four-week old potato plants sprayed with 10 nM vs mock (FIG. 6A)
  Potato tubers harvested: significantly more potato tubers
Arabidopsis seeds; Arabidopsis seeds pretreated 24 hours with 1 μM vs mock, 3 days after planting (FIG. 5A)
  Number of plants at different stages of germination: faster germination/emergence rate
Arabidopsis seeds; Arabidopsis, 1 μM vs mock, 25 days after planting (FIG. 5D)
  Fresh weight of above-ground (excluding root) part of the plants: greater weight
Arabidopsis seeds; Arabidopsis, 1 μM vs mock, day 25 after planting in soil (FIG. 5C)
  Percentage of plants flowering: greater plant flowering
Arabidopsis seeds; Arabidopsis, 1 μM vs mock, pixel counting with Fiji software, normalized (FIG. 5B)
  Surface area of germinated plants: greater plant surface area
Wheat seeds
  Height of the second node of the plants: taller
